Test results as given in paper PMC10266789 (The Journal of Clinical Investigation, 2023).

Legend:
HCMV DNA = experiment: Intracellular HCMV DNA accumulation by qPCR in MRC-5; assay type: cell-based, human cytomegalovirus; details: 72 hours
[1] = tested on: SARS-CoV-2 (strain USA-WA1/2020); experiment: microbe, parasite or virus in culture; details: Severe acute respiratory syndrome coronavirus 2, Calu-3, in Homo sapiens, read-out: IC50, SARS-CoV-2
[2] = tested on: Epstein-Barr virus (EBV; strain Akata); experiment: microbe, parasite or virus in culture; details: human gammaherpesvirus 4, Akata, read-out: IC50, Epstein-Barr
[3] = tested on: Betacoronavirus 1 (strain OC43); details: HCoV-OC43/human MRC-5
[4] = tested on: c-Myc in MDA-MB-231 breast adenocarcinoma cells; experiment: Western blot of c-Myc in MDA-MB-231 cells; assay type: cell-based, human; details: 72 hours
Description: (§1) Supplemental Figure 1. […] (A) HepG2 cells were treated with FLS- […]
(§2) determined by western blot. Total a-tubulin was monitored as a control. (B) MDA-MB-231 cells or (C) MRC-5 fibroblasts were treated with drug for 72h and c-Myc was monitored by western blot with b-actin as a control. Western blots are representative of three independent experiments.
(§3) (1 picture or pasted object on this page, not shown here)

HCMV virions = tested on: HCMV virions; design: species or system human cytomegalovirus; details: 1 or 5 μM; 96 hours at 37°C
[5] = Residual drug levels in MRC-5 cells and supernatant after washout, mass spectrometry; assay type: in vitro ADME, human
Description: Supplemental Figure 8. […] (A) Uninfected cells
After 24h, supernatant was collected, monolayers were washed 3x to remove drug and cells were replenished with drug-free media.
Supernatants and cells were then assayed for residual drug levels at 2, 24 or 72h post-release. (B-C) Supernatant and cell-associated drug concentrations were determined by mass spectrometry. (D) […]
monolayer of MRC-5 cells. Sampling of the supernatant was conducted after a 24h incubation at 37°C, followed by 3X washes with PBS, collection of the final wash, and replenishment of drug-free medium to the dishes. Supernatant samples were then collected at 24 and 72h post drug-removal. […]
concentrations as determined by mass spectrometry. Mean +/- SD is shown (n=3).
as §3

[6] = Mouse pharmacokinetics, plasma; assay type: in vivo; details: single 50 mg/kg p.o., female BALB/c mice
Description: The pharmacokinetics study used fed female BALB/c mice (22 g, n = 3 per time point). Blood samples (~30 μL via saphenous vein puncture) were taken at 0.25, 0.5, 1, 2, 4, 8, and 24 hours. […] The lower limit of quantification was 10 ng/mL. An aliquot of 10 μL plasma sample was mixed with 10 μL terfenadine solvent plus 2 μL methanol. An additional 200 μL of terfenadine solvent was added, and the resulting mixture was vortexed for 1 minute and centrifuged at 1,500g for 15 minutes. The supernatant was diluted 10× with methanol/water (1:1 vol/vol with 0.1% formic acid), and 2 μL aliquots were analyzed using a QTRAP 4000 LC-MS/MS System (Sciex) with a C18 column (Kinetex). Pharmacokinetic parameters were determined with the noncompartmental analysis tool in WinNonlin (Certara).
Plasma samples from groups
Mean +/- SD is presented.

[7] = Host cell cytotoxicity, Calu3; assay type: cell-based; details: Calu3 cells; human Calu3; SARS-CoV-2 assay
[8] = tested on: acetylated α-tubulin in HepG2 cells; experiment: Western blot of acetylated α-tubulin in HepG2 cells; assay type: cell-based, human; details: 24 hours, plus 1 µM trichostatin A
Description: as §1, §2, §3

[9] = 72 hours after drug removal, treated 24 h with 5 µM

## Cc1cn(-c2ccc3c(c2)CN(c2ncc(Cc4ccc(-n5cccn5)cc4)s2)CC3)c(C)n1 [FLS-359, 7-(2,4-dimethyl-1H-imidazol-1-yl)-2-(5-{[4-(1H-pyrazol-1-yl)phenyl]methyl}-1,3-thiazol-2-yl)-1,2,3,4-tetrahydroisoquinoline]
HCMV DNA; 3 IU/cell
  intracellular viral DNA accumulation: compromised
HCMV DNA; Figure 8B
  reduction in intracellular viral DNA levels: approximately 3 fold
[1]
  IC50: 0.3 µM
[2]
  IC50: 3.8 µM
[3]
  SI CC50/IC50: >30.1
[4]
  c-Myc protein level: dramatically reduced
HCMV virions
  effect of incubating virus stock with drug on infectivity: no significant effect on infectivity
[5]; 5 µM in medium, no cells
  removal of drug from culture dishes without cells: efficiently removed by washing
[5]; [9]
  drug level in cells: ~ 5 μM
  drug level in supernatant: ~ 0.4 μM
[6]; female, BALB/c, mouse, in vivo, po, 50 mg/kg, read-out: plasma half-life (T1/2) (converted)
  half-life: 5.8 ± 1.4 h
[6]; female, BALB/c, mouse, plasma, po, 50 mg/kg
  Cmax: 89.3 ± 11 µM
[6]; mouse, plasma, po
  AUC(0-inf): 713 µM·h
  Tmax: 2 h
[6]; plasma, 50 mg/kg
  Cmax: 89 µM
[7]
  CC50: 15.8 µM
[8]
  increase of acetylated α-tubulin level: about 3 factor
